What all share (format): functional
One assay relates to Bacillus subtilis. Put plainly: Ability to inhibit growth of Bacillus subtilis MTCC 121 was determined.
The test system of the next assay is Enterococcus faecalis. Put plainly: Ability to inhibit growth of Enterococcus faecalis MTCC 439 was determined.
The test system of a further assay is Klebsiella pneumoniae. Put plainly: Ability to inhibit growth of Klebsiella pneumoniae MTCC 109 was determined.
Another assay has as its system Staphylococcus aureus. Put plainly: Ability to inhibit growth of Staphylococcus aureus MTCC1430 was determined.
In a further assay the test system is Pseudomonas aeruginosa. Put plainly: Ability to inhibit growth of Pseudomonas aeruginosa MTCC 1034 was determined.
The subject of the next assay is Escherichia coli. Put plainly: Ability to inhibit growth of Escherichia coli MTCC 42 was determined.
The subject of the next assay is Proteus vulgaris. Put plainly: Ability to inhibit growth of Proteus vulgaris MTCC744 was determined.
Another assay relates to Bacillus cereus. In words: Ability to inhibit growth of Bacillus cereus MTCC 1272 was determined.
For another assay, the system named is Shigella sonnei. In words: Ability to inhibit growth of Shigella sonnei MTCC 2957 was determined.

The results in this text go back to ChEMBL document CHEMBL1137910, “Synthesis and biological activity of novel antibacterial quinazolines” (2004).

With `Cc1ccc2nc(-c3ccccc3)nc(-c3ccc(N(C)C)cc3)c2c1`, the “Growth Inhibition” value in the assay on Bacillus subtilis is on record as 15 mm; with Enterococcus faecalis, 12 mm; in the assay with Klebsiella pneumoniae, 19 mm; with Staphylococcus aureus it was 11 mm; with Pseudomonas aeruginosa, 18 mm; in the assay on Escherichia coli it was 18 mm. Besides, the “Growth Inhibition” value came out at 17 mm with Proteus vulgaris, 14 mm with Bacillus cereus and 16 mm in the assay on Shigella sonnei.

Take `COc1ccc(-c2nc(-c3ccccc3)nc3ccc(C)cc23)cc1`: the “Growth Inhibition” value amounted to 12 mm with Bacillus subtilis; 12 mm with Enterococcus faecalis; 17 mm with Klebsiella pneumoniae; 0 mm with Staphylococcus aureus; 16 mm in the assay on Pseudomonas aeruginosa; 16 mm with Escherichia coli. The “Growth Inhibition” value with Proteus vulgaris is on record as 15 mm; in the assay on Bacillus cereus, 13 mm; in the assay on Shigella sonnei, 15 mm.

In the case of `COc1ccc(-c2nc(N3CCCCC3)nc3ccc(C)cc23)cc1`, the “Growth Inhibition” value in the assay with Bacillus subtilis turned out to be 21 mm; with Enterococcus faecalis it was 16 mm; with Klebsiella pneumoniae it was 20 mm; with Staphylococcus aureus, 19 mm; with Pseudomonas aeruginosa, 15 mm; in the assay with Escherichia coli, 19 mm. Also, the results for the “Growth Inhibition” value with Proteus vulgaris, with Bacillus cereus and in the assay with Shigella sonnei were 18 mm, 16 mm and 21 mm, respectively.

For `Cc1ccc2nc(N3CCOCC3)nc(-c3ccccc3)c2c1`, the “Growth Inhibition” value turned out to be 16 mm in the assay on Bacillus subtilis; 16 mm in the assay on Enterococcus faecalis; 19 mm with Klebsiella pneumoniae; 12 mm with Staphylococcus aureus; 19 mm in the assay with Pseudomonas aeruginosa; 21 mm with Escherichia coli. Besides, the figures for the “Growth Inhibition” value in the assay on Proteus vulgaris, in the assay with Bacillus cereus and in the assay on Shigella sonnei were 18 mm, 15 mm and 20 mm, respectively.

On to `Cc1ccc2nc(N3CCOCC3)nc(-c3ccc(N(C)C)cc3)c2c1`, for which the “Growth Inhibition” value came to 18 mm in the assay on Bacillus subtilis; 17 mm with Enterococcus faecalis; 20 mm with Klebsiella pneumoniae; 22 mm in the assay on Staphylococcus aureus; 16 mm in the assay with Pseudomonas aeruginosa; 20 mm in the assay with Escherichia coli. Besides, the “Growth Inhibition” value in the assay with Proteus vulgaris came to 18 mm; in the assay with Bacillus cereus, 19 mm; in the assay on Shigella sonnei, 19 mm.

As for `O=C(O)c1cn(C2CC2)c2cc(N3CCNCC3)c(F)cc2c1=O` [CIPROFLOXACIN], the “Growth Inhibition” value turned out to be 22 mm with Bacillus subtilis; 16 mm in the assay with Enterococcus faecalis; 18 mm in the assay with Klebsiella pneumoniae; 21 mm in the assay on Staphylococcus aureus; 18 mm with Pseudomonas aeruginosa; 22 mm with Escherichia coli. For the same compound, the “Growth Inhibition” value in the assay on Proteus vulgaris is 19 mm; with Bacillus cereus it was 17 mm; in the assay on Shigella sonnei it was 21 mm.
